# Source: patent US20240208950A1, “COMPOSITIONS AND METHODS FOR TREATMENT OF CERVICAL AND OVARIAN CANCER” (SOUTH DAKOTA BOARD OF REGENTS, priority 2021, published 2024)
# Columns and labels:
# β-catenin in CaSki cells = test: Western blot of β-catenin in nuclear and cytoplasmic extracts, CaSki; format: cell-based, human; settings: 15 μM, 24 hours
# Procedure: In the Example shown at FIGS. 9A-9E, cells were subjected to treatment with 15 μM concentration of ORM-Br for 24 hours, nuclear extracts were prepared and western blot analysis were used to detect the protein levels of β-catenin. […] Western blots were reprobed with β-actin and Histone H3 antibodies as an internal control.
# The nuclear and cytoplasmic lysates were prepared using respective buffers. The cell lysates (40 μg) were subjected to SDS-PAGE and blotted on PVDF membrane. The membranes were further blocked in 5% milk diluted in 1×TBST solution for 1 hour and incubated overnight in primary antibodies. The following day, the membranes were washed and incubated with secondary antibodies for 1 hour, washed again and developed on a UVP system using chemi-luminiscent reagents.
# The EMT process in a cell is driven by growth factors or other signaling proteins such as Wnt/beta-catenin and extracellular matrix component that may stimulate cellular growth and migration. The effect of Br-ORM on β-catenin signaling was examined.
# FIG. 15. Effect OF Br-ORM on β-catenin signaling and molecular docking of Br-ORM with β-catenin. Effect of Br-ORM on β-catenin distribution in cytoplasm and nucleus of CaSki and SiHa cells. […] Effect of Br-ORM on β-catenin localization in CaSki cells as determined by confocal microscopy (FIG. 15B(i)-(ii)). […]
# CaSki cells = test: Cell invasion assay (Matrigel / Boyden chamber), CaSki; format: cell-based, human; settings: 24 hours
# Procedure: FIGS. 8A and 8B show the effect of ORM-Br on invasion of CaSki (FIG. 8A) and SiHa (FIG. 8B) cell lines in Boyden chamber and xCELLigence assay. The images represent the invaded cells of control and ORM-Br-treated CaSki and SiHa cells as determined by Boyden Chamber kit. The magnification was at 20 for the images of FIGS. 8A and 8B.
# Cell invasion assay was performed using BD Biocoat Matrigel Invasion Chambers (BD Biosciences, San Jose, CA, USA), as has been described in the art. Cells were treated with Br-ORM followed by incubation for 24 hours. Cells were fixed using methanol and were stained with crystal violet. […]
# FIG. 14. […] Effect of Br-ORM on cell migration of cervical cancer cells as determined by agarose bead (FIG. 14A), scratch wound healing (FIG. 14B), and Boyden chamber assay (FIG. 14C). […] Closure of wound was determined and photographed using phase contrast microscopy. […] Bar graph represent the quantification of migrated CaSki cells of control and Br-ORM treated groups (FIG. 14C(ii)). […] Effect of Br-ORM treatment on invasion of CaSki cells as determined by a commercially available kit (BD Biosciences) as described in materials and methods. In brief, 24 hours post-treatment of Br-ORM, invaded cells were fixed, stained and counted. […] Bar graph represent the quantification of invaded CaSki cells of control and Br-ORM treated groups (FIG. 14D(ii)). […]
structure (smiles),measurement,setting,value
COc1ccc2c(c1)OC(C)(C)C(c1ccc(Br)cc1)C2c1ccc(OCCN2CCCC2)cc1 (stereo not shown) [ORM-Br],nuclear β-catenin expression,β-catenin in CaSki cells,decrease in expression of nuclear β-catenin
same,nuclear β-catenin expression,β-catenin in CaSki cells; listed as Br-ORM,inhibited nuclear β-catenin
same,cell invasion,CaSki cells,inhibits the invasion
same,cell invasion,CaSki cells; listed as Br-ORM,effectively inhibited invasion
